According to US10059713B2 (Takeda Pharmaceutical Company Limited, priority 2014, dated 2018):

Molecular target: human GPR43 (Homo sapiens (Human), UniProt O15552)
Assay: Ca-Flux functional assay: determination of agonist/positive allosteric modulator (PAM) activity
Type: cell-based
Conditions: CHO-K1 Gα16 cells stably expressing human GPR43; compound added with EC20 sodium acetate; intracellular Ca2+ by FLIPR; does not distinguish agonist from PAM
Method in brief: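 CHO-K1 Gα16 cells stably expressing human GPR43, loaded with Calcium 5 dye 1 h; compounds (10-point half-log from 10 μM) added with sodium acetate at EC20. FLIPR calcium signal gave EC50, two wells per point; agonists and PAMs not distinguished.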

Sequence of human GPR43 (O15552 whole entry): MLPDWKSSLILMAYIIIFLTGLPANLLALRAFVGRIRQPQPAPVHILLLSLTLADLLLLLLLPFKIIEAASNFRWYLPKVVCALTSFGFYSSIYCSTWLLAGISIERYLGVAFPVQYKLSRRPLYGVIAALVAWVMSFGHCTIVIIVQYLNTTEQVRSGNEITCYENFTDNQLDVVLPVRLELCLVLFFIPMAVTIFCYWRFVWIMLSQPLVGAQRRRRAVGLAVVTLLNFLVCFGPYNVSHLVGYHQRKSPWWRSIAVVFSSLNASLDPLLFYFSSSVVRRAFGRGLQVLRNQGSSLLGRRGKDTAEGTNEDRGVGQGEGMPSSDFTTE

SMILES | EC50 [µM]
Nc1[nH]c2c(O[C@@H]3CCOC3)ncnc2c1S(=O)(=O)c1ccccc1 [Example 159, 7-(benzenesulfonyl)-4-[(3R)-oxolan-3-yloxy]-5H-pyrrolo[3,2-d]pyrimidin-6-amine] | 5.25
Cc1csc(COc2ncnc3c(S(=O)(=O)c4ccccc4)c(N)[nH]c23)n1 [Example 161, 7-(benzenesulfonyl)-4-[(4-methyl-1,3-thiazol-2-yl)methoxy]-5H-pyrrolo[3,2-d]pyrimidin-6-amine] | 1.4
C[C@@H](Oc1ncnc2c(S(=O)(=O)c3ccccc3)c(N)[nH]c12)c1ccccn1 [Example 162, 7-(benzenesulfonyl)-4-[(1R)-1-(pyridin-2-yl)ethoxy]-5H-pyrrolo[3,2-d]pyrimidin-6-amine] | 0.141
Cc1nc(COc2ncnc3c(S(=O)(=O)c4ccccc4)c(N)[nH]c23)c(C)o1 [Example 163, 7-(benzenesulfonyl)-4-[(dimethyl-1,3-oxazol-4-yl)methoxy]-5H-pyrrolo[3,2-d]pyrimidin-6-amine] | 6.26
Nc1[nH]c2c(OC3CCOCC3)ncnc2c1S(=O)(=O)c1ccccc1 [Example 166, 7-(benzenesulfonyl)-4-(oxan-4-yloxy)-5H-pyrrolo[3,2-d]pyrimidin-6-amine] | 1.64
Nc1[nH]c2c(OC3CCC3)ncnc2c1S(=O)(=O)c1ccccc1 [Example 167, 7-(benzenesulfonyl)-4-cyclobutoxy-5H-pyrrolo[3,2-d]pyrimidin-6-amine] | 0.076
Nc1[nH]c2c(OCc3ccccc3)ncnc2c1S(=O)(=O)c1ccccc1 [Example 168, 7-(benzenesulfonyl)-4-(benzyloxy)-5H-pyrrolo[3,2-d]pyrimidin-6-amine] | 0.134
Nc1[nH]c2c(OCC3CCOCC3)ncnc2c1S(=O)(=O)c1ccccc1 [Example 169, 7-(benzenesulfonyl)-4-(oxan-4-ylmethoxy)-5H-pyrrolo[3,2-d]pyrimidin-6-amine] | 1.89
Nc1[nH]c2c(OCC3CC(F)(F)C3)ncnc2c1S(=O)(=O)c1ccccc1 [Example 171, 7-(benzenesulfonyl)-4-[(3,3-difluorocyclobutyl)methoxy]-5H-pyrrolo[3,2-d]pyrimidin-6-amine] | 0.134
CC1(COc2ncnc3c(S(=O)(=O)c4ccccc4)c(N)[nH]c23)CC1 [Example 173, 7-(benzenesulfonyl)-4-[(1-methylcyclopropyl)methoxy]-5H-pyrrolo[3,2-d]pyrimidin-6-amine] | 0.364
COCCOc1ncnc2c(S(=O)(=O)c3ccccc3)c(N)[nH]c12 [Example 174, 7-(benzenesulfonyl)-4-(2-methoxyethoxy)-5H-pyrrolo[3,2-d]pyrimidin-6-amine] | 6.62
Nc1[nH]c2c(OCC3CC3(F)F)ncnc2c1S(=O)(=O)c1ccccc1 (centres unmarked) [Example 175, 7-(benzenesulfonyl)-4-[(2,2-difluorocyclopropyl)methoxy]-5H-pyrrolo[3,2-d]pyrimidin-6-amine] | 0.373
Cc1cc(F)ccc1S(=O)(=O)c1c(N)[nH]c2c(N3CCOC(C)C3)ncnc12 (centres unmarked) [Example 178, 7-(4-fluoro-2-methylbenzenesulfonyl)-4-(2-methylmorpholin-4-yl)-5H-pyrrolo[3,2-d]pyrimidin-6-amine] | 0.676
Cc1nc(C2CCC(F)(F)CC2)c2[nH]c(N)c(S(=O)(=O)c3ccccc3)c2n1 [Example 183, 7-(benzenesulfonyl)-4-(4,4-difluorocyclohexyl)-2-methyl-5H-pyrrolo[3,2-d]pyrimidin-6-amine] | 0.173
CCN(CC1CCOCC1)c1ncnc2c(S(=O)(=O)c3ccccc3)c(N)[nH]c12 [Example 188, 7-(benzenesulfonyl)-4-N-ethyl-4-N-(oxan-4-ylmethyl)-5H-pyrrolo[3,2-d]pyrimidine-4,6-diamine] | 2.66
CN(c1ncnc2c(S(=O)(=O)c3ccccc3)c(N)[nH]c12)C1CCOC(C)(C)C1 (centres unmarked) [Example 189, 7-(benzenesulfonyl)-4-N-(2,2-dimethyloxan-4-yl)-4-N-methyl-5H-pyrrolo[3,2-d]pyrimidine-4,6-diamine] | 1.97
CCC1CN(c2ncnc3c(S(=O)(=O)c4ccc(OC)cc4)c(N)[nH]c23)CCO1 (centres unmarked) [Example 190, 4-(2-ethylmorpholin-4-yl)-7-(4-methoxybenzenesulfonyl)-5H-pyrrolo[3,2-d]pyrimidin-6-amine] | 0.125
Cc1nc(N(C)C(C)C)c2[nH]c(N)c(S(=O)(=O)c3cccc(F)c3)c2n1 [Example 193, 7-(3-fluorobenzenesulfonyl)-2,4-N-dimethyl-4-N-(propan-2-yl)-5H-pyrrolo[3,2-d]pyrimidine-4,6-diamine] | 0.27
Cc1nc(OCC2CC2)c2[nH]c(N)c(S(=O)(=O)c3cccc(F)c3)c2n1 [Example 194, 4-(cyclopropylmethoxy)-7-(3-fluorobenzenesulfonyl)-2-methyl-5H-pyrrolo[3,2-d]pyrimidin-6-amine] | 0.475

Further compounds by falling EC50, results first:

EC50 [µM] | SMILES
0.083 | CC(C)C1CN(c2ncnc3c(S(=O)(=O)c4ccccc4)c(N)[nH]c23)CCO1 (centres unmarked) [Example 184, 7-(benzenesulfonyl)-4-[2-(propan-2-yl)morpholin-4-yl]-5H-pyrrolo[3,2-d]pyrimidin-6-amine]
0.082 | Cc1nc(N2CCC(F)(F)CC2)c2[nH]c(N)c(S(=O)(=O)c3cccc(F)c3)c2n1 [Example 181, 4-(4,4-difluoropiperidin-1-yl)-7-(3-fluorobenzenesulfonyl)-2-methyl-5H-pyrrolo[3,2-d]pyrimidin-6-amine]
0.078 | CC1CC1COc1ncnc2c(S(=O)(=O)c3ccccc3)c(N)[nH]c12 (centres unmarked) [Example 172, 7-(benzenesulfonyl)-4-[(2-methylcyclopropyl)methoxy]-5H-pyrrolo[3,2-d]pyrimidin-6-amine]
0.073 | Nc1[nH]c2c(OCC3CCCCC3)ncnc2c1S(=O)(=O)c1ccccc1 [Example 165, 7-(benzenesulfonyl)-4-(cyclohexylmethoxy)-5H-pyrrolo[3,2-d]pyrimidin-6-amine]
0.043 | Cc1nc(N2CCOC(C)C2)c2[nH]c(N)c(S(=O)(=O)c3cccc(F)c3)c2n1 (centres unmarked) [Example 180, 7-(3-fluorobenzenesulfonyl)-2-methyl-4-(2-methylmorpholin-4-yl)-5H-pyrrolo[3,2-d]pyrimidin-6-amine]
0.043 | Cc1nc(N2CCOC(C)(C)C2)c2[nH]c(N)c(S(=O)(=O)c3cccc(F)c3)c2n1 [Example 191, 4-(2,2-dimethylmorpholin-4-yl)-7-(3-fluorobenzenesulfonyl)-2-methyl-5H-pyrrolo[3,2-d]pyrimidin-6-amine]
0.04 | CC(Oc1ncnc2c(S(=O)(=O)c3ccccc3)c(N)[nH]c12)C1CC1 (centres unmarked) [Example 170, 7-(benzenesulfonyl)-4-(1-cyclopropylethoxy)-5H-pyrrolo[3,2-d]pyrimidin-6-amine]
0.039 | Nc1[nH]c2c(OC3CCCCC3)ncnc2c1S(=O)(=O)c1ccccc1 [Example 160, 7-(benzenesulfonyl)-4-(cyclohexyloxy)-5H-pyrrolo[3,2-d]pyrimidin-6-amine]
0.031 | Cc1nc(N2CCOC3(CC3)C2)c2[nH]c(N)c(S(=O)(=O)c3cccc(F)c3)c2n1 [Example 192, 7-(3-fluorobenzenesulfonyl)-2-methyl-4-{4-oxa-7-azaspiro[2.5]octan-7-yl}-5H-pyrrolo[3,2-d]pyrimidin-6-amine]
0.025 | CC(Oc1ncnc2c(S(=O)(=O)c3ccccc3)c(N)[nH]c12)c1ccccc1 (centres unmarked) [Example 164, 7-(benzenesulfonyl)-4-(1-phenylethoxy)-5H-pyrrolo[3,2-d]pyrimidin-6-amine]
0.018 | Cc1nc(N2C[C@@H](C)O[C@@H](C)C2)c2[nH]c(N)c(S(=O)(=O)c3cccc(F)c3)c2n1 [Example 179, 4-[(2R,6S)-2,6-dimethylmorpholin-4-yl]-7-(3-fluorobenzenesulfonyl)-2-methyl-5H-pyrrolo[3,2-d]pyrimidin-6-amine]
0.014 | Cc1nc(N2CCC(F)(F)CC2)c2[nH]c(N)c(S(=O)(=O)c3ccccc3F)c2n1 [Example 186, 4-(4,4-difluoropiperidin-1-yl)-7-(2-fluorobenzenesulfonyl)-2-methyl-5H-pyrrolo[3,2-d]pyrimidin-6-amine]
0.01 | CCC1CN(c2ncnc3c(S(=O)(=O)c4ccccc4)c(N)[nH]c23)CCS1 (centres unmarked) [Example 196, 7-(benzenesulfonyl)-4-(2-ethylthiomorpholin-4-yl)-5H-pyrrolo[3,2-d]pyrimidin-6-amine]
0.008 | Cc1nc(N2CCOC(C)C2)c2[nH]c(N)c(S(=O)(=O)c3ccccc3F)c2n1 (centres unmarked) [Example 176, 7-(2-fluorobenzenesulfonyl)-2-methyl-4-(2-methylmorpholin-4-yl)-5H-pyrrolo[3,2-d]pyrimidin-6-amine]
0.008 | CC1CN(c2ncnc3c(S(=O)(=O)c4ccccc4)c(N)[nH]c23)CCS1 (centres unmarked) [Example 195, 7-(benzenesulfonyl)-4-(2-methylthiomorpholin-4-yl)-5H-pyrrolo[3,2-d]pyrimidin-6-amine]
0.006 | Cc1nc(N2CCOC3(CCCC3)C2)c2[nH]c(N)c(S(=O)(=O)c3ccccc3F)c2n1 [Example 177, 7-(2-fluorobenzenesulfonyl)-2-methyl-4-{6-oxa-9-azaspiro[4.5]decan-9-yl}-5H-pyrrolo[3,2-d]pyrimidin-6-amine]
0.006 | Cc1nc(N2CCOC(C)C2)c2[nH]c(N)c(S(=O)(=O)c3cccc(F)c3F)c2n1 (centres unmarked) [Example 182, 7-(2,3-difluorobenzenesulfonyl)-2-methyl-4-(2-methylmorpholin-4-yl)-5H-pyrrolo[3,2-d]pyrimidin-6-amine]
0.006 | Cc1nc(N2CCOC(C)(C)C2)c2[nH]c(N)c(S(=O)(=O)c3ccccc3F)c2n1 [Example 185, 4-(2,2-dimethylmorpholin-4-yl)-7-(2-fluorobenzenesulfonyl)-2-methyl-5H-pyrrolo[3,2-d]pyrimidin-6-amine]
0.005 | Cc1nc(N2C[C@@H](C)O[C@@H](C)C2)c2[nH]c(N)c(S(=O)(=O)c3ccccc3F)c2n1 [Example 187, 4-[(2R,6S)-2,6-dimethylmorpholin-4-yl]-7-(2-fluorobenzenesulfonyl)-2-methyl-5H-pyrrolo[3,2-d]pyrimidin-6-amine]
